The test system of series [1] is murine RAW 264.7 macrophages. The note with it: 64 µM; cited from earlier work.
A further series concerns C. jeikeium ATCC BAA-949. The class given is cell-based, Corynebacterium jeikeium. The note with it: lowest peptide concentration visually inhibiting growth after 20 h at 37 °C; TSB + 0.1% Tween 80; 2-fold serial dilutions; inoculum 2x10^6 CFU/mL diluted 1:1. The protocol: The MIC of the different AMPs against C. jeikeium ATCC BAA-949 were determined following the previously described procedure with some modifications. The bacterium was grown in TSB^+ up to an optical density (O.D.) of 0.8 (λ = 590 nm) and diluted to reach a concentration of 2× 10^6 colony forming units (CFU) per mL. Aliquots (50 µL) of this dilution were added to 50 µL of TSB^+ supplemented with 2-fold serial dilution of peptides previously dispensed in the wells of a 96 well plate. Controls were bacteria not treated with the peptides. […] MBC was defined as the lowest peptide concentration able to cause a ≥3 log reduction in the number of cells of the initial inoculum after 20 h of incubation.

Where no end group is shown, it is not given here.

Usually MIC stands for the smallest concentration in the dilution series that meets the test's criterion for growth inhibition.

In the case of “GIFSKLAGKKIKNLLISGLKG-NH2 [Esc(1-21), esculentin-1a(1-21)]”, in series [1], the cell viability entry is “about 50%”.
Consider “IIGPVLGLVGSALGGLLKKI-NH2 [Bombinin H2, bombinin H2]”, for which the MIC in the series with C. jeikeium ATCC BAA-949 is on record as 8 µM.
